Columns and labels:
A2780 [1] = test: Resistant factor, ratio of IC50 for p-glycoprotein expressing drug-resistant human A2780AD cells to IC50 for human A2780 cells; format: functional
A2780 [2] = test: cells; details: Homo sapiens, A2780, 48 h
Description: Cytotoxicity against human A2780 cells after 48 hrs by MTT assay

A2780 [3] = details: Homo sapiens, A2780, 48 h
[4] = Induction of assembly of GTP-tubulin into microtubules assessed as critical concentration
[5] = Displacement of non-fluorescent ligand from paclitaxel binding site of microtubule

| Compound | Ratio IC50 (A2780 [1]) | IC50 (A2780 [2]) [nM] | IC50 (A2780 [3]) [nM] | Activity [4] [µM] | Ka [5] [×10⁸ /M] |
| --- | --- | --- | --- | --- | --- |
| COc1cccc(C(=O)O[C@H]2[C@@H]3[C@]4(OC(C)=O)CO[C@@H]4C[C@H](OC(=O)[C@H](C)NC(=O)c4ccc(-c5c6cc(F)c(=O)cc-6oc6cc(O)c(F)cc56)c(C(=O)O)c4)[C@@]3(C)C(=O)[C@H](OC(C)=O)C3=C(C)[C@@H](OC(=O)[C@H](O)[C@@H](NC(=O)c4ccccc4)c4ccccc4)C[C@]2(O)C3(C)C)c1 | 26.4 | 272 | 7200 | 2.17 | – |
| C/C=C(\C)C(=O)N[C@@H](c1ccccc1)[C@@H](O)C(=O)O[C@H]1C[C@@]2(O)[C@@H](OC(=O)c3cccc(N=[N+]=[N-])c3)[C@@H]3[C@]4(OC(C)=O)CO[C@@H]4C[C@H](OC(=O)[C@H](C)NC(=O)c4ccc(-c5c6ccc(=O)cc-6oc6cc(O)ccc56)c(C(=O)O)c4)[C@@]3(C)C(=O)[C@H](OC(C)=O)C(=C1C)C2(C)C | >91 | 220 | > 20000 | 2.45 | – |
| COc1cccc(C(=O)O[C@H]2[C@@H]3[C@]4(OC(C)=O)CO[C@@H]4C[C@H](OC(=O)[C@H](C)NC(=O)c4ccc(-c5c6ccc(=O)cc-6oc6cc(O)ccc56)c(C(=O)O)c4)[C@@]3(C)C(=O)[C@H](OC(C)=O)C3=C(C)[C@@H](OC(=O)[C@H](O)[C@@H](NC(=O)c4ccccc4)c4ccccc4)C[C@]2(O)C3(C)C)c1 | 36.7 | 19.5 | 716 | 2.26 | – |
| C/C(=C\c1csc(C)n1)[C@@H]1C[C@@H]2O[C@]2(C)CCC[C@H](C)[C@H](O)[C@@H](C)C(=O)C(C)(C)[C@@H](O)CC(=O)O1 | – | – | – | – | 7.5 |
| CC(=O)O[C@@]12CO[C@@H]1C[C@H](O)[C@@]1(C)C(=O)[C@H](O)C3=C(C)[C@@H](OC(=O)[C@H](O)[C@@H](NC(=O)OC(C)(C)C)c4ccccc4)C[C@@](O)([C@@H](OC(=O)c4ccccc4)[C@H]21)C3(C)C.O.O.O [DOCETAXEL] | 483 | 0.6 | 290 | 2.5 | – |
| CC(=O)O[C@H]1C(=O)[C@]2(C)[C@@H](OC(=O)[C@H](C)NC(=O)c3ccc(-c4c5ccc(=O)cc-5oc5cc(O)ccc45)c(C(=O)O)c3)C[C@H]3OC[C@@]3(OC(C)=O)[C@H]2[C@H](OC(=O)c2ccccc2)[C@]2(O)C[C@H](OC(=O)[C@H](O)[C@@H](NC(=O)c3ccccc3)c3ccccc3)C(C)=C1C2(C)C [FLUTAX 1] | >78 | 256 | > 20000 | 3.84 | – |
| CC(=O)O[C@H]1C(=O)[C@]2(C)[C@@H](OC(=O)[C@H](C)NC(=O)c3ccc(-c4c5cc(F)c(=O)cc-5oc5cc(O)c(F)cc45)c(C(=O)O)c3)C[C@H]3OC[C@@]3(OC(C)=O)[C@H]2[C@H](OC(=O)c2ccccc2)[C@]2(O)C[C@H](OC(=O)[C@H](O)[C@@H](NC(=O)c3ccccc3)c3ccccc3)C(C)=C1C2(C)C [FLUTAX 2] | >25 | 800 | > 20000 | 3.22 | – |
| CC(=O)O[C@H]1C(=O)[C@@]2(C)[C@H]([C@H](OC(=O)c3ccccc3)[C@]3(O)C[C@H](OC(=O)[C@H](O)[C@@H](NC(=O)c4ccccc4)c4ccccc4)C(C)=C1C3(C)C)[C@]1(OC(C)=O)CO[C@@H]1C[C@@H]2O [PACLITAXEL] | – | 1.3 | – | 4.23 | – |

From ChEMBL document CHEMBL1143357, “Synthesis and biological activities of high affinity taxane-based fluorescent probes” (Bioorg Med Chem Lett, 2009)
